Read-outs that look alike come from different tables or passages of the source.
Biological target: T1, mu opiate receptor (MOR) (Rattus norvegicus, UniProt P33535)
T1 construct: from tissue; host or cells: striatum (membrane preparation)
Type: biochemical
Protocol: To assess the mu opiate receptor (MOR) agonist activity of positive compounds from the FLNA screening, compounds were tested in a [^35S]GTPγS binding assay using striatal membranes. […] This assay measures a functional consequence of receptor occupancy at one of the earliest receptor-mediated events. The assay permits for traditional pharmacological parameters of potency, efficacy and antagonist affinity, with the advantage that agonist measures are not subjected to amplification or other modulation that may occur when analyzing parameters further downstream of the receptor.
Thus, striatal tissue was homogenized in 10 volumes of ice cold 25 mM HEPES buffer, pH 7.4, which contained 1 mM EGTA, 100 mM sucrose, 50 μg/ml leupeptin, 0.04 mM PMSF, 2 μg/ml soybean trypsin inhibitor and 0.2% 2-mercaptoethanol. The homogenates were centrifuged at 800×g for 5 minutes and the supernatants were centrifuged at 49,000×g for 20 minutes.
The resultant striatal membrane preparation (200 μg) was admixed and maintained (incubated) at 30° C. for 5 minutes in reaction buffer as above that additionally contained 1 mM MgCl2 and 0.5 nM [^35S]GTPγS (0.1 μCi/assay, PerkinElmer Life and Analytical Sciences) in a total volume of 250 μl and continued for 5 minutes in the absence or presence of 0.1-10 μM of an assayed compound of interest. The reaction was terminated by dilution with 750 μl of ice-cold reaction buffer that contained 20 mM MgCl2 and 1 mM EGTA and immediate centrifugation at 16,000×g for 5 minutes.
Normal rabbit serum (1 μl) was added to 1 ml of lysate and incubated at 25° C. for 30 minutes. Nonspecific immune complexes were removed by incubation with 25 μl of protein A/G-conjugated agarose beads at 25° C. for 30 minutes followed by centrifugation at 5,000×g at 4° C. for 5 minutes. The supernatant was divided and separately incubated at 25° C. for 30 minutes with antibodies raised against Gαo proteins (1:1,000 dilutions).
The immunocomplexes so formed were collected by incubation at 25° C. for 30 minutes with 40 μl of agarose-conjugated protein A/G beads and centrifugation at 5,000×g at 4° C. for 5 minutes. The pellet was washed and suspended in buffer containing 50 mM Tris-HCl, pH 8.0, and 1% NP-40. The radioactivity in the suspension was determined by liquid scintillation spectrometry.

[1] = [35S]GTPγS binding to Gαo in striatal membranes, compound 0.1 μM
[2] = [35S]GTPγS binding to Gαo in striatal membranes, compound 1 μM
[3] = [35S]GTPγS binding to Gαo in striatal membranes, compound 1 μM plus 1 μM β-funaltrexamine (MOR antagonist)
[4] = 0.1 μM compound, striatal membranes, Series C-2
[5] = 1 μM compound + 1 μM β-FNA (selective MOR antagonist), Series C-2
[6] = 1 μM compound, striatal membranes, Series C-2

T1 sequence (P33535 whole entry): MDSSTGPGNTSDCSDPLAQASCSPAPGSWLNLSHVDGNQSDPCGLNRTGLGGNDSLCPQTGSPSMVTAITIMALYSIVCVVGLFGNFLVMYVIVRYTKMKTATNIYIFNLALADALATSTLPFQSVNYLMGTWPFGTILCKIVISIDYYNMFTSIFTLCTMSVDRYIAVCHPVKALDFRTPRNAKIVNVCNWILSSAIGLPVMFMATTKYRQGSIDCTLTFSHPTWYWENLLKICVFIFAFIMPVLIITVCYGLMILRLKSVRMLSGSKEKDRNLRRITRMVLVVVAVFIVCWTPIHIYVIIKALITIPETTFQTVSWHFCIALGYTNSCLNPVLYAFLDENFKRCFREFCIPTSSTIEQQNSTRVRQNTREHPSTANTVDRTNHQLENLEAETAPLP

Row | SMILES | % DAMGO (0.1 μM) [%] | % DAMGO (1 μM) [%] | % DAMGO + BFNA [%] | Concentration of FLNA-Binding Compound as Agonist 0.1 μM [1] [%] | Concentration of FLNA-Binding Compound as Agonist 1 μM [2] [%] | Concentration of FLNA-Binding Compound as Agonist 1 μM + BFNA [3] [%] | [35S]GTPγS binding, FLNA-Binding Compound as Agonist at 0.1 μM [4] [%] | [35S]GTPγS binding, FLNA-Binding Compound as Agonist at 1 μM + BFNA [5] [%] | [35S]GTPγS binding, FLNA-Binding Compound as Agonist at 1 μM [6] [%] | Concentration of FLNA-Binding Compound as Agonist 0.1 μM [%] | Concentration of FLNA-Binding Compound as Agonist 1 μM [%] | Concentration of FLNA-Binding Compound as Agonist 1 μM + BFNA [%] | [35S]GTPγS binding, FLNA-Binding Compound as Agonist at 0.1 μM [%] | [35S]GTPγS binding, FLNA-Binding Compound as Agonist at 1 μM [%] | [35S]GTPγS binding, FLNA-Binding Compound as Agonist at 1 μM + BFNA [%]
1 | CC1CN(CC(O)COc2cccc(N(C)C)c2)CC(C)O1 (stereo not drawn) [Compound A0042] | 75.2 | 84.5 | 121.1 | 147.5 | 233.1 | 89.5 |  |  |  |  |  |  |  |  | 
2 | N#Cc1ccccc1S(=O)(=O)N1CCC2(CC1)OCCN2S(=O)(=O)c1ccccc1C#N [Compound C0004] | 72.1 | 85.4 | 99.7 | 122.0 | 228.4 | 65.8 |  |  |  |  |  |  |  |  | 
3 | COc1c2c(cc3c1C(CC(O)CCc1ccccc1)[N+](C)(C)CC3)OCO2 (stereo not drawn) [Compound B0052] | 58.1 | 69.3 | 246.4 | 98.2 | 151.7 | 40.9 |  |  |  |  |  |  |  |  | 
4 | CC(=O)N1CCSC12CCN(S(=O)(=O)c1ccc([N+](=O)[O-])cc1)CC2 [Compound C0050] | 76.1 | 54.8 | 134.1 |  |  |  | 110.3 | 59.0 | 127.6 |  |  |  |  |  | 
5 | CC(=O)c1ccc(S(=O)(=O)N2CCC3(CC2)OCCN3S(=O)(=O)c2ccc(C(C)=O)cc2)cc1 [Compound C0011] | 126.8 | 114.3 | 36.5 |  |  |  |  |  |  | 217.0 | 305.0 | 19.0 | 217.0 | 305.0 | 19.0
6 | CC1CCC(C(C)C)C(OCC(O)CN2CC(C)OC(C)C2)C1 (stereo not drawn) [Compound A0032-1] | 95.5 | 117.6 | 303.8 | 187.4 | 324.5 | 224.5 |  |  |  |  |  |  |  |  | 
7 | CC1CCC(C(C)C)C(OCC(O)CN2CCC(=O)CC2)C1 (stereo not drawn) [Compound A0060] | 63.9 | 68.6 | 35.8 | 99.7 | 158.2 | 14.3 |  |  |  |  |  |  |  |  | 
8 | CC(=O)c1ccc(S(=O)(=O)N2CC(CN(C)C)OC23CCN(CC2CC2)CC3)cc1 (stereo not drawn) [Compound C0128M] | 104.5 | 115.2 | 131.8 |  |  |  | 197.8 | 63.9 | 286.0 |  |  |  |  |  | 
9 | O=S(=O)(c1ccc(Br)cc1F)N1CCC2(CC1)OCCN2S(=O)(=O)c1ccc(Br)cc1F [Compound C0078] | 82.4 | 106.4 | 359.4 | 138.1 | 236.6 | 170.7 |  |  |  |  |  |  |  |  | 
10 | COc1ccc(OCC(O)CN2CC(C)OC(C)C2)cc1 (stereo not drawn) [Compound A0048] | 119.1 | 109.7 | 226.3 | 233.7 | 302.9 | 167.2 |  |  |  |  |  |  |  |  | 
11 | COCOc1ccc(CCC(=O)CC2c3c(cc4c(c3OC)OCO4)CC[N+]2(C)C)cc1 (stereo not drawn) [Compound B0040] | 93.2 | 105.1 | 169.6 | 146.0 | 243.3 | 55.3 |  |  |  |  |  |  |  |  | 

— US10760052B2, “Method of inhibiting tau phosphorylation” (priority 2012, dated 2020)
